Data published in publication PMC6155738, “Antiparasitic Activity of Sulfur- and Fluorine-Containing Bisphosphonates against Trypanosomatids and Apicomplexan Parasites” (Molecules : A Journal of Synthetic Chemistry and Natural …, 2017).

These compounds were tested against T1, TgFPPS (Toxoplasma gondii, UniProt Q197X6) (assay: FPPS enzymatic activity assay).
T1 construct: gene FPPS; bifunctional enzyme making FPP and GGPP; enzyme assay as in Szajnman et al., 2008
T1 sequence (Q197X6 1-646): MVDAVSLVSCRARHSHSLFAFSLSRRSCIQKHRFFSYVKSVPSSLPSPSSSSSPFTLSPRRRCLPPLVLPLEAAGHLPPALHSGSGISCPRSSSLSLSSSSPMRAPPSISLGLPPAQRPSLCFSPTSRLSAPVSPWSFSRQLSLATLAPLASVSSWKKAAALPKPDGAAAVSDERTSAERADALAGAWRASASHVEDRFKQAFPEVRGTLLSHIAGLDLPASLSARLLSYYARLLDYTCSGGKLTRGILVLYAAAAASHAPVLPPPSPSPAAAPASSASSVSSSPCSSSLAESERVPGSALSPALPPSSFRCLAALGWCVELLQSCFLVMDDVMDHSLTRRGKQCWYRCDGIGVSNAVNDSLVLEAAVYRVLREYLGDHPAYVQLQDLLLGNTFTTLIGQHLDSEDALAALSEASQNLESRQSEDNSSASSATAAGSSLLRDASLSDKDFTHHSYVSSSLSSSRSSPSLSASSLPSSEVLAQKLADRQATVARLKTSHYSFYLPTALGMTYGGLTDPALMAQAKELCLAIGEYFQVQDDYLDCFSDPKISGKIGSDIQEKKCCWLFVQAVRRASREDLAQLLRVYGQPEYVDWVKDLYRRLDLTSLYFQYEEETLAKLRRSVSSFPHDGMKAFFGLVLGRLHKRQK
Format: biochemical
From the text: FPPS enzymatic activity assay on TgFPPS

Question: For `C=C(C)CNCC(P(=O)(O)O)P(=O)(O)O` [compound 19, 1-[(2-Methylall-1-ylamino)ethyl] 1,1-bisphosphonic Acid], which IC50 is on record?
Answer: The IC50 was 183 ± 63 nM.

Question: Which IC50 does the source give for `CC(C)=CCC/C(C)=C/CSCC(P(=O)(O)O)P(=O)(O)O` [compound 44, 1-[((E)-3,7-Dimethylocta-2,6-diene-1-thio)ethyl] 1,1-bisphosphonic Acid] here?
Answer: The IC50 was 313 ± 27 nM.

Question: With `CCCCNCC(F)(P(=O)(O)O)P(=O)(O)O` [compound 55, 1-[(n-But-1-ylamino)ethyl]-1-fluoro-1,1-bisphosphonic Acid] as the compound, how does the IC50 read?
Answer: The IC50 was 91 ± 32 nM.
